# Reference: ChEMBL document CHEMBL2417479, “Effects of the methoxy group in the side chain of debromoaplysiatoxin on its tumor-promoting and anti-proliferative activities” (Bioorg Med Chem Lett, 2013)
# Tests used:
# MKN-74 = test: Growth inhibition of human MKN74 cells after 48 hrs by SRB assay; format: functional; details: MKN-74, 48 h
# SNB-78 = test: Growth inhibition of human SNB-78 cells after 48 hrs by SRB assay; format: functional; details: SNB-78, 48 h
# [1] = Cytotoxicity against human Raji cells assessed as cell viability at 10^-7 M relative to control; format: cell-based; details: read-out: Activity
# SK-OV-3 = test: Growth inhibition of human SKOV3 cells after 48 hrs by SRB assay; format: functional; details: SK-OV-3, 48 h
# MKN-7 = test: Growth inhibition of human MKN7 cells after 48 hrs by SRB assay; format: functional; details: MKN-7, 48 h
# NCI-H226 = test: Growth inhibition of human NCI-H226 cells after 48 hrs by SRB assay; format: functional; details: NCI-H226, 48 h
# MCF7 = test: Growth inhibition of human MCF7 cells after 48 hrs by SRB assay; format: functional; details: MCF7, 48 h
# OVCAR-8 = test: Growth inhibition of human OVCAR8 cells after 48 hrs by SRB assay; format: functional; details: OVCAR-8, 48 h
# HCT-15 = test: Growth inhibition of human HCT15 cells after 48 hrs by SRB assay; format: functional; details: HCT-15, 48 h
# Raji [2] = test: Tumor-promoting activity against human Raji cells expressing EBV-EA at 10^-8 M after 48 hrs by indirect immunofluorescence assay relative to control; format: ADME, cell-based; details: 0.01 µM
# DMS-273 = test: Growth inhibition of human DMS273 cells after 48 hrs by SRB assay; format: functional; details: DMS-273, 48 h
# MKN-28 = test: Growth inhibition of human MKN28 cells after 48 hrs by SRB assay; format: functional; details: MKN-28, 48 h
# [3] = Cytotoxicity against human Raji cells assessed as cell viability at 10^-6 M relative to control; format: cell-based; details: read-out: Activity
# OVCAR-3 = test: Growth inhibition of human OVCAR3 cells after 48 hrs by SRB assay; format: functional; details: OVCAR-3, 48 h
# NCI-H23 = test: Growth inhibition of human NCI-H23 cells after 48 hrs by SRB assay; format: functional; details: NCI-H23, 48 h
# NCI-H460 = test: Growth inhibition of human NCI-H460 cells after 48 hrs by SRB assay; format: functional; details: NCI-H460, 48 h
# SF-539 = test: Growth inhibition of human SF539 cells after 48 hrs by SRB assay; format: functional; details: SF-539, 48 h
# SNB-75 = test: Growth inhibition of human SNB75 cells after 48 hrs by SRB assay; format: functional; details: SNB-75, 48 h
# Raji [4] = test: Tumor-promoting activity against human Raji cells expressing EBV-EA at 10^-7 M after 48 hrs by indirect immunofluorescence assay relative to control; format: ADME, cell-based; details: 0.1 µM
# U-251 = test: Growth inhibition of human U251 cells after 48 hrs by SRB assay; format: functional; details: U-251, 48 h
# MKN-45 = test: Growth inhibition of human MKN45 cells after 48 hrs by SRB assay; format: functional; details: MKN-45, 48 h
# PC-3 = test: Growth inhibition of human PC3 cells after 48 hrs by SRB assay; format: functional; details: PC-3, 48 h
# [5] = Growth inhibition of human MKN1 cells after 48 hrs by SRB assay; format: functional; details: MKN-1, 48 h
# DU-145 = test: Growth inhibition of human DU145 cells after 48 hrs by SRB assay; format: functional; details: DU-145, 48 h
# DMS-114 = test: Growth inhibition of human DMS114 cells after 48 hrs by SRB assay; format: functional; details: DMS-114, 48 h
# OVCAR-4 = test: Growth inhibition of human OVCAR4 cells after 48 hrs by SRB assay; format: functional; details: OVCAR-4, 48 h
# Mus musculus [6] = test: In vivo tumor-promoting activity in DMBA-treated ICR mouse assessed as tumor bearing mouse at 3.4 nmol administered twice per week measured after 20 weeks by two-stage carcinogenesis assay relative to control; format: ADME, organism-based; details: 3360 h
# OVCAR-5 = test: Growth inhibition of human OVCAR5 cells after 48 hrs by SRB assay; format: functional; details: OVCAR-5, 48 h
# [7] = Growth inhibition of human HCC2998 cells after 48 hrs by SRB assay; format: functional; details: HCC 2998, 48 h
# [8] = Growth inhibition of human RXF631L cells after 48 hrs by SRB assay; format: functional; details: RXF 631, 48 h
# [9] = Growth inhibition of human HBC5 cells after 48 hrs by SRB assay; format: functional; details: HBC5, 48 h
# A549 = test: Growth inhibition of human A549 cells after 48 hrs by SRB assay; format: functional; details: A549, 48 h
# ACHN = test: Growth inhibition of human ACHN cells after 48 hrs by SRB assay; format: functional
# [10] = Growth inhibition of human HBC4 cells after 48 hrs by SRB assay; format: functional; details: HBC4, 48 h
# [11] = Cytotoxicity against human Raji cells assessed as cell viability at 10^-8 M relative to control; format: cell-based; details: read-out: Activity
# NCI-H522 = test: Growth inhibition of human NCI-H522 cells after 48 hrs by SRB assay; format: functional; details: NCI-H522, 48 h
# [12] = Growth inhibition of human BSY1 cells after 48 hrs by SRB assay; format: functional; details: BSY-1, 48 h
# SF-295 = test: Growth inhibition of human SF295 cells after 48 hrs by SRB assay; format: functional; details: SF-295, 48 h
# MDA-MB-231 = test: Growth inhibition of human MDA-MB-231 cells after 48 hrs by SRB assay; format: functional; details: MDA-MB-231, 48 h
# HCT-116 = test: Growth inhibition of human HCT116 cells after 48 hrs by SRB assay; format: functional; details: HCT-116, 48 h
# SF-268 = test: Growth inhibition of human SF268 cells after 48 hrs by SRB assay; format: functional; details: SF-268, 48 h
# KM12 = test: Growth inhibition of human KM12 cells after 48 hrs by SRB assay; format: functional; details: KM12, 48 h
# Raji [13] = test: Tumor-promoting activity against human Raji cells expressing EBV-EA at 10^-6 M after 48 hrs by indirect immunofluorescence assay relative to control; format: ADME, cell-based; details: 1 µM
# St-4 = test: Growth inhibition of human St-4 cells after 48 hrs by SRB assay; format: functional; details: St-4, 48 h
# LOX IMVI = test: Growth inhibition of human LOXIMVI cells after 48 hrs by SRB assay; format: functional
# HT-29 = test: Growth inhibition of human HT-29 cells after 48 hrs by SRB assay; format: functional; details: HT-29, 48 h
# Mus musculus [14] = test: In vivo tumor-promoting activity in DMBA-treated ICR mouse assessed as tumor bearing mouse at 1.7 nmol administered twice per week measured after 20 weeks by two-stage carcinogenesis assay relative to control; format: ADME, organism-based; details: 3360 h
# Mus musculus [15] = test: In vivo tumor-promoting activity in DMBA-treated ICR mouse assessed as increase in number of papillomas at 1.7 nmol administered twice per week measured at 13 to 20 weeks by two-stage carcinogenesis assay; format: ADME, organism-based
# Mus musculus [16] = test: In vivo tumor-promoting activity in DMBA-treated ICR mouse assessed as increase in number of papillomas at 3.4 nmol administered twice per week measured at 11 to 20 weeks by two-stage carcinogenesis assay; format: ADME, organism-based
# [17] = target: Protein kinase C delta type (Homo sapiens, UniProt Q05655); test: Displacement of [3H]PDBu from PKCdelta C1B domain (unknown origin)
# [18] = target: Protein kinase C theta type (Homo sapiens, UniProt Q04759); test: Displacement of [3H]PDBu from PKCtheta C1B domain (unknown origin)
# [19] = target: Protein kinase C alpha type (Homo sapiens, UniProt P17252); test: Displacement of [3H]PDBu from PKCalpha C1A domain (unknown origin)
# [20] = target: Protein kinase C epsilon type (Homo sapiens, UniProt Q02156); test: Displacement of [3H]PDBu from PKCepsilon C1B domain (unknown origin)
# [21] = target: Protein kinase C eta type (Homo sapiens, UniProt P24723); test: Displacement of [3H]PDBu from PKCeta C1B domain (unknown origin)
# [22] = target: Protein kinase C gamma type (Homo sapiens, UniProt P05129); test: Displacement of [3H]PDBu from PKCgamma C1A domain (unknown origin)
# [23] = target: Protein kinase C beta type (Homo sapiens, UniProt P05771); test: Displacement of [3H]PDBu from PKCbeta C1A domain (unknown origin)
# Chain of Protein kinase C beta type (P05771 whole entry, the tested form may be a part): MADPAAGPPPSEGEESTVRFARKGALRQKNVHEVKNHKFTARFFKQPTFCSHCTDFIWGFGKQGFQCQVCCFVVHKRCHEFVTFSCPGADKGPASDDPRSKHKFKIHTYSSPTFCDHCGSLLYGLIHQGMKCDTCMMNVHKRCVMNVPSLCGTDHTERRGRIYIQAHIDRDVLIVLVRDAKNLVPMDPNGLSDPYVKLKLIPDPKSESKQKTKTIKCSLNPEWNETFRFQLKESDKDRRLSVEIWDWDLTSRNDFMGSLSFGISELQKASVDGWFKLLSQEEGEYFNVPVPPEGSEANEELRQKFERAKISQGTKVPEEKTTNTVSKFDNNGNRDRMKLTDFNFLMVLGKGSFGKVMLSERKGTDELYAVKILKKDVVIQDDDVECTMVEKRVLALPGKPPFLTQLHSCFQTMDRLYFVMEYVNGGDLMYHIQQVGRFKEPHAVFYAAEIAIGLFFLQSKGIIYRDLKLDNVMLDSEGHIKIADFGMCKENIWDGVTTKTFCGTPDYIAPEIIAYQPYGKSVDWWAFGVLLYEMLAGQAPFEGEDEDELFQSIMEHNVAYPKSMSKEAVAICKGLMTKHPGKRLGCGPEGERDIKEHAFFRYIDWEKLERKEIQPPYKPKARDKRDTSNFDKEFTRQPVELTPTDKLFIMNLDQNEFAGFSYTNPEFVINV
# Chain of Protein kinase C epsilon type (Q02156 whole entry, the tested form may be a part): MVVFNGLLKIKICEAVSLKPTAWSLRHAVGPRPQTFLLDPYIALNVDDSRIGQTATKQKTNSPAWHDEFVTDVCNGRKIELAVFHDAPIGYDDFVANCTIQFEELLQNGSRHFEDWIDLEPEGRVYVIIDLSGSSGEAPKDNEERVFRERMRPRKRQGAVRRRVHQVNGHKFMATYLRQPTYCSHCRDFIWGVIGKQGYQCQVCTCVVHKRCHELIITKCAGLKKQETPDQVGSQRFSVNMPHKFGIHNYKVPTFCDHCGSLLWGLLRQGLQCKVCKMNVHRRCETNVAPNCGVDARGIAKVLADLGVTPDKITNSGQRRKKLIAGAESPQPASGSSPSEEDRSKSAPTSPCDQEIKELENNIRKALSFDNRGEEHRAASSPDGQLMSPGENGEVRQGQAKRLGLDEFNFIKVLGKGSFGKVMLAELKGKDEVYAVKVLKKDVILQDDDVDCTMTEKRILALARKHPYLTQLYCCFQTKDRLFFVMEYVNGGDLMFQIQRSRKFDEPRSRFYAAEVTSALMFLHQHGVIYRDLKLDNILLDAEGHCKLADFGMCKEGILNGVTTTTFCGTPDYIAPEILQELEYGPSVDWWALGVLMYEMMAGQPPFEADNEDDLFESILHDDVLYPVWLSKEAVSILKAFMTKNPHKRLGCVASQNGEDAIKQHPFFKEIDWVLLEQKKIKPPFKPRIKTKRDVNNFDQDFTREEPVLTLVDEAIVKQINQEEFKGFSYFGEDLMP
# Chain of Protein kinase C delta type (Q05655 whole entry, the tested form may be a part): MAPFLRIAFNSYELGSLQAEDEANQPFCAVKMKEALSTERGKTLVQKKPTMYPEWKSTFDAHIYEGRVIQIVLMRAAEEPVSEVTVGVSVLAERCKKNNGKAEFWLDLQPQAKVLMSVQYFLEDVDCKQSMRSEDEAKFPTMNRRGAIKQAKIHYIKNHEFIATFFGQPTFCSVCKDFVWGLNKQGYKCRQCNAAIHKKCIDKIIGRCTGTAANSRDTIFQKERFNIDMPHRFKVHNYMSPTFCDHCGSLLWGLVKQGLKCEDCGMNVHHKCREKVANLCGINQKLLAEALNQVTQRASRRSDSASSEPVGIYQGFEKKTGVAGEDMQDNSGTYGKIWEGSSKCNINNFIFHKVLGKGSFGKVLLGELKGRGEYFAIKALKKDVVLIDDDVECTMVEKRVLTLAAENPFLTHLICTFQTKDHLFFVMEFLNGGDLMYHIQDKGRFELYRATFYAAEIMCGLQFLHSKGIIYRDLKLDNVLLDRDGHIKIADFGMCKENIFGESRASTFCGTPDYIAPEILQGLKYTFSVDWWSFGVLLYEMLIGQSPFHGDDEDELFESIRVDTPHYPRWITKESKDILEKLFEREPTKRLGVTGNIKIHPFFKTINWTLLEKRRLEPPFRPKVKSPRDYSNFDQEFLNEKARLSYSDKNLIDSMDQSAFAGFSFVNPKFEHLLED
# Chain of Protein kinase C eta type (P24723 whole entry, the tested form may be a part): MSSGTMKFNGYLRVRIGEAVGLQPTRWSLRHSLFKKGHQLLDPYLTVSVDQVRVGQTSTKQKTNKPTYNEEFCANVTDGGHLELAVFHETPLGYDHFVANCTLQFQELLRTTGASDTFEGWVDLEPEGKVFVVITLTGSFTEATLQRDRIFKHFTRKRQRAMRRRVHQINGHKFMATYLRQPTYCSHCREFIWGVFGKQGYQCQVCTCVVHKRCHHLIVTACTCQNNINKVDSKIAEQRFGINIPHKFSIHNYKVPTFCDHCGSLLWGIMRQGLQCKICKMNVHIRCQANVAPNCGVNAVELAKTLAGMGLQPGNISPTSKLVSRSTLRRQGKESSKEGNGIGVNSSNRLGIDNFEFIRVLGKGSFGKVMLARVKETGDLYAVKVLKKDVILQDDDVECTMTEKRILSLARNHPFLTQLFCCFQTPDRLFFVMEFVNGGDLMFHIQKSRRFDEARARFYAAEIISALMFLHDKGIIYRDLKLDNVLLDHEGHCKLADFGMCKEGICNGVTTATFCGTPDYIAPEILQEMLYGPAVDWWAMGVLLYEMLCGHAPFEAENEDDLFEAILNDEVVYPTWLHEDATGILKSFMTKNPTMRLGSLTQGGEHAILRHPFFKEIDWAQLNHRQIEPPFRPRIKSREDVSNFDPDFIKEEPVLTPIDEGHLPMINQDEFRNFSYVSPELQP
# Chain of Protein kinase C theta type (Q04759 whole entry, the tested form may be a part): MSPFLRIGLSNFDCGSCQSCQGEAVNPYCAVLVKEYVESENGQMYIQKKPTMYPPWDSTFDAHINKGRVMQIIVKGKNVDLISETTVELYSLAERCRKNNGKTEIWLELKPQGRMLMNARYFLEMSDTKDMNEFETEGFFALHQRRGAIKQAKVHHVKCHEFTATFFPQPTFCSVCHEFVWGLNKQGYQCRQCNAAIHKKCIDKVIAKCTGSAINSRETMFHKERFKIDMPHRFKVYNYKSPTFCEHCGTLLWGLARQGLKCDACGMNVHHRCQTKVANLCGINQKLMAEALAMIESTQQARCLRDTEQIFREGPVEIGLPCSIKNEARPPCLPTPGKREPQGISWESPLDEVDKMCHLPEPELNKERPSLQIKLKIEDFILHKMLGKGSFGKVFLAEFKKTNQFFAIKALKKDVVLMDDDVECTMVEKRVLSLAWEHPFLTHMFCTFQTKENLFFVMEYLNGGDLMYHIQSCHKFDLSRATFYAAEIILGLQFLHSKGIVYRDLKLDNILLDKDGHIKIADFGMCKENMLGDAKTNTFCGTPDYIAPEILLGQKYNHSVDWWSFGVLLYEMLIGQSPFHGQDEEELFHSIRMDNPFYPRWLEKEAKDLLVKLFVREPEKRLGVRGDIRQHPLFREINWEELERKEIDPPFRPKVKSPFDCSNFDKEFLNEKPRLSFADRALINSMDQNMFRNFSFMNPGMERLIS
compound,measurement,setting,value
CC1=C2CC(=O)O[C@@H]([C@@H](C)O)CC(=O)O[C@H]3C[C@@](O2)(O[C@H]([C@@H](C)CCCc2cccc(O)c2)[C@H]3C)C(C)(C)C1,GI50,MKN-74,6.17 µM
same,GI50,SNB-78,15.5 µM
same,viability at 0.1 µM,[1],60%
same,GI50,SK-OV-3,15.5 µM
same,GI50,MKN-7,4.07 µM
same,GI50,NCI-H226,10.7 µM
same,GI50,MCF7,4.37 µM
same,GI50,OVCAR-8,12.6 µM
same,GI50,HCT-15,6.76 µM
same,Activity,Raji [2],11%
same,GI50,DMS-273,4.37 µM
same,GI50,MKN-28,4.68 µM
same,viability at 1 µM,[3],60%
same,GI50,OVCAR-3,8.51 µM
same,GI50,NCI-H23,7.94 µM
same,GI50,NCI-H460,0.871 µM
same,GI50,SF-539,11.2 µM
same,GI50,SNB-75,9.77 µM
same,Activity,Raji [4],14.1%
same,GI50,U-251,4.57 µM
same,GI50,MKN-45,1.82 µM
same,GI50,PC-3,3.72 µM
same,GI50,[5],8.13 µM
same,GI50,DU-145,7.94 µM
same,GI50,DMS-114,4.47 µM
same,GI50,OVCAR-4,6.61 µM
same,Activity,Mus musculus [6],Not Active
same,GI50,OVCAR-5,4.17 µM
same,GI50,[7],1.86 µM
same,GI50,[8],11 µM
same,GI50,[9],11.7 µM
same,GI50,A549,2.09 µM
same,GI50,ACHN,5.5 µM
same,GI50,[10],0.55 µM
same,viability at 0.01 µM,[11],60%
same,GI50,NCI-H522,5.5 µM
same,GI50,[12],4.07 µM
same,GI50,SF-295,3.24 µM
same,GI50,MDA-MB-231,1.07 µM
same,GI50,HCT-116,5.62 µM
same,GI50,SF-268,10.2 µM
same,GI50,KM12,4.17 µM
same,Activity,Raji [13],16.2%
same,GI50,St-4,0.741 µM
same,GI50,LOX IMVI,0.832 µM
same,GI50,HT-29,4.47 µM
CO[C@@H](CC[C@H](C)[C@H]1O[C@@]23C[C@H](OC(=O)C[C@H]([C@@H](C)O)OC(=O)C[C@](O)(O2)[C@H](C)CC3(C)C)[C@@H]1C)c1cccc(O)c1 [DEBROMOAPLYSIATOXIN],viability at 0.1 µM,[1],50%
same,Activity,Raji [2],21.1%
same,viability at 1 µM,[3],50%
same,Activity,Raji [4],22.9%
same,Activity,Mus musculus [14],80%
same,Activity,Mus musculus [6],90%
same,Activity,Mus musculus [15],Toxic
same,viability at 0.01 µM,[11],60%
same,Activity,Mus musculus [16],Toxic
same,Activity,Raji [13],24.4%
C[C@@H]1[C@@H]([C@@H](C)CCCc2cccc(O)c2)O[C@@]23C[C@@H]1OC(=O)C[C@H]([C@@H](C)O)OC(=O)C[C@](O)(O2)[C@H](C)CC3(C)C [DEMETHOXYDEBROMOAPLYSIATOXIN],GI50,MKN-74,6.92 µM
same,GI50,SNB-78,6.46 µM
same,Ki,[17],0.00032 µM
same,viability at 0.1 µM,[1],50%
same,GI50,SK-OV-3,7.24 µM
same,GI50,MKN-7,2.75 µM
same,GI50,NCI-H226,0.0525 µM
same,GI50,MCF7,5.62 µM
same,GI50,OVCAR-8,14.8 µM
same,GI50,HCT-15,9.77 µM
same,Activity,Raji [2],14.3%
same,GI50,DMS-273,3.47 µM
same,GI50,MKN-28,6.76 µM
same,viability at 1 µM,[3],50%
same,Ki,[18],0.0002 µM
same,GI50,OVCAR-3,8.13 µM
same,GI50,NCI-H23,6.17 µM
same,GI50,NCI-H460,0.01 µM
same,Ki,[19],0.001 µM
same,GI50,SF-539,11.5 µM
same,GI50,SNB-75,10.2 µM
same,Activity,Raji [4],17.9%
same,GI50,U-251,7.24 µM
same,GI50,MKN-45,6.76 µM
same,Ki,[20],0.0013 µM
same,Activity,Mus musculus [14],70%
same,GI50,PC-3,4.57 µM
same,GI50,[5],5.5 µM
same,GI50,DU-145,10.7 µM
same,GI50,DMS-114,5.5 µM
same,Ki,[21],0.00018 µM
same,GI50,OVCAR-4,7.24 µM
same,Activity,Mus musculus [6],90%
same,Activity,Mus musculus [15],Toxic
same,GI50,OVCAR-5,4.9 µM
same,GI50,[7],0.0692 µM
same,Ki,[22],0.00069 µM
same,GI50,[8],15.1 µM
same,GI50,[9],11.2 µM
same,GI50,A549,0.145 µM
same,GI50,ACHN,2.51 µM
same,GI50,[10],< 0.01 µM
same,viability at 0.01 µM,[11],60%
same,Activity,Mus musculus [16],Toxic
same,GI50,NCI-H522,4.79 µM
same,GI50,[12],6.17 µM
same,GI50,SF-295,2.95 µM
same,GI50,MDA-MB-231,0.049 µM
same,GI50,HCT-116,8.71 µM
same,Ki,[23],0.0015 µM
same,GI50,SF-268,13.2 µM
same,GI50,KM12,3.47 µM
same,Activity,Raji [13],18.6%
same,GI50,St-4,0.0129 µM
same,GI50,LOX IMVI,1.62 µM
same,GI50,HT-29,12.3 µM
